Assay results taken from publication PMC12216609, “Inhibitors of eIF1A-ribosome interaction unveil uORF-dependent regulation of translation initiation and antitumor and antiviral effects” (The EMBO Journal, 2025).
“And” between values parts separate entries of the source, which are not always exact repeats. Equal entries are not always repeated. Where two headings read alike, the source gives them in different places.

Columns and labels:
[1] = molecular target: T1, eIF1A-RPS10 interaction (Homo sapiens, UniProt P46783+P47813); assay: Split-Renilla luciferase eIF1A-RPS10 interaction screen, dose-response; format: biochemical; conditions: Appendix Table S1; read-out: IC50 from the split RL screen
T1 construct: made in house; host or cells: E. coli BL21 (PRSFduet); unpurified lysate supernatant
Protocol: While knockdown (KD) studies of eIF1A provided valuable insights into its role in mammalian cell translation (Sehrawat et al, [2019]), this approach presents several limitations. First, it fails to elucidate the functional significance of the opposing functions of eIF1A N- and C-terminal tails with respect to scanning and start codon fidelity. Second, the extended duration required for achieving efficient knockdown, 48–72 h, impairs our ability to differentiate between direct and indirect effects. To overcome these constraints, we set out to develop small-molecule inhibitors targeting eIF1A. Guided by structural and biochemical studies showing eIF1A binding to the small ribosomal subunit at the A-site and interacting directly with RPS10 through its N-terminal tail (Haimov et al, [2017]; Passmore et al, [2007]; Sehrawat et al, [2019]), our approach focused on disrupting the interaction between eIF1A and RPS10. […] The interaction between eIF1A and RPS10 brings the two parts together, leading to the reconstitution of the enzymatic activity (Haimov et al, [2017]). In this system, the spatial arrangement of the two RL parts is critical for the enzymatic activity, making it sensitive not only to direct interference with the interacting proteins but also to changes in the conformation of the fused proteins. In the eIF1A-RPS10 split-RL pair, the C-terminus of eIF1A is fused to N-RL (Fig. 1A), in order to maintain the NTT accessible to RPS10 binding. This pair was cloned and expressed in bacteria as recombinant proteins and used to screen a library of ~50,000 small molecules from diverse sources (Ashkenazi et al, [2017]).
eIF1A-ΔC-Renilla and RPS10-ΔN-Renilla were transformed into BL21 E. coli by heat shock transformation. A bacterial starter of 5 ml LB was incubated overnight at 37 °C and transferred into 1 L LB for incubation at 37 °C until OD ~ 0.5–0.7. Next, protein expression was induced with 0.5 mM IPTG, and bacterial cells were incubated overnight at 16 °C. Bacterial cell pellet was collected after centrifugation (3000 RPM, 15 min), resuspended in 20 ml TKE buffer (Tris 10 mM, KCl 100 mM, EDTA 0.1 mM), sonicated (bath sonicator, 24 cycles of 30 s) and centrifuged again (15000 RPM, 30 min). Supernatants were collected, analyzed for RL activity, and then used for high throughput drug screen (HTS) at the Weizmann G-INCPM HTS unit as described (Ashkenazi et al, [2017]). In addition to the standard controls of this protocol, the two parts of the split RL, without eIF1A or RPS10, were tested as controls. Selected compounds were purchased from Sigma-Aldrich and Enamine. Compound powders were resuspended in DMSO for a final concentration of 10 mM and stored at −20 °C.

[2] = system: CUG/GUG vs AUG start codon luciferase reporters in HEK293T cells; assay: Near-cognate AUG starting codon fidelity reporter assay (GUG, CUG vs AUG); format: cell-based; conditions: for GUG vs AUG data (%): individual repeat; for GUG vs AUG (%) Average: summary average of repeats, DMSO control average […]
Protocol: We next considered the importance of eIF1A in controlling start codon fidelity in yeast and mammalian cells (Martin-Marcos et al, [2011]; Martin-Marcos et al, [2017]; Sehrawat et al, [2019]; She et al, [2023]) and tested how inhibition of eIF1A by 1Ais affects the initiation from near-cognate AUG. The effect of 1Ais was analyzed using firefly luciferase reporters bearing either AUG (control), CUG, or GUG as the exclusive translation initiation sites. Co-transfected GFP reporter served as an internal control for transfection efficiency.
For the near-cognate AUG Starting codon fidelity reporter assay, HEK293T cells were transfected with 100 ng of the previously described luciferase reporter constructs driven either by AUG, CUG, and GUG (Tang et al, [2017]) together with GFP expressing plasmid (20 ng) as normalizing control. Luciferase and GFP levels were determined as described above.
Appendix Figure S1: (A) HEK293T cells were transfected with Luciferase reporter genes with either CUG or AUG as their exclusive starting codon. 6 hours after transfection, cells were exposed to 1Ais, and the luminescence from all constructs was measured after overnight incubation. Bars represent the ratio between luminescence from the AUG starting codon and CUG after normalization with co-transfected GFP; Error bars represent SEM, * denotes p<0.05 (T-test comparing to DMSO control), n=≥4 independent biological replicates.

[3] = system: cap-proximal AUG GFP reporter in HEK293T cells; format: cell-based; conditions: GFP WB densitometry; 20 µM overnight; dmso 0.965946
From the text: Translation from an AUG preceded by a very short 5'UTR (less than 30 nt) is usually inefficient and frequently bypassed, resulting in initiation from a downstream AUG, a phenomenon known as leaky scanning. […] To examine the impact of 1Ais on short 5'UTR initiation, we used a GFP reporter gene containing an AUG located 16 nt downstream from the 5' end followed by a second in-frame downstream AUG (Fig. 1F; Appendix Fig. S1B). Cells were transfected with this GFP reporter gene followed by exposure to DMSO (vehicle) and 1Ais. Initiations from upstream (US) or downstream (DS) AUGs were determined by western blot (WB) with anti-GFP antibodies and the ratio between the US and DS AUG was determined.
For the analysis of translation from very short 5'UTR and Leaky scanning, HEK293T cells were transfected with a GFP (20 ng/well) reporter gene driven by a cap-proximal and downstream AUGs (Elfakess et al, [2011]) together with a luciferase reporter gene (100 ng/well) as normalizing control and treated with 20 µM of 1Ais as described above. GFP levels were determined by Western blot (WB) (GFP antibody, Abcam #ab290) and quantified by densitometry (ImageJ) and normalized to the measured luciferase activity.
HEK293T cells were transfected with the GFP reporter gene schematically shown on the top. The first
AUG is […] from the 5’ end and the downstream AUG is in the same frame. Six hours after transfection, cells were treated with 1Ais. After overnight exposure to 1Ais, GFP expression was analyzed by WB using anti -GFP antibodies.
US/DS ratio was determined by densitometry and represents the long protein expression (upstream AUG, US) vs the […]
biological replicates. (C-D) Analysis of reporter genes mRNA levels after 1Ais treatment.

[4] = system: IRF7 5'UTR firefly luciferase reporter in HEK293T cells; conditions: for LONG (summary - All), normalized to DMSO / SHORT (summary - All), normalized to DMSO: individual replicates, outliers excluded, DMSO = 1; for Long 5'UTR reporter luciferase activity, normalized to DMSO (=1), single replicates: compound at 20 µM, left data block (Long), source data of Fig 1C; for average ( long vs short ratio): summary - All;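 on all read-outs here: luciferase signal corrected by a co-transfected GFP reporter for transfection efficiency, read after overnight compound exposure, with Long and Short reporters differing in 5'UTR length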
Protocol: For the effect on ribosomal scanning, we used two firefly luciferase reporter genes that differ in their 5'UTR length (Fig. 1C). […] Cells were transfected with these reporters along with a GFP reporter gene used to normalize transfection efficiency. After an overnight 1Ai or DMSO (vehicle control) exposure, luciferase and GFP expression were measured, and normalized activity was determined.
For the reference vs IRF7 5'UTR luciferase reporter assay, HEK239T cells in a 12-well plate were transfected with the previously described IRF7 5'UTR or reference firefly luciferase reported genes (Sehrawat et al, [2019]) (100 ng/well) together with GFP (20 ng/well) that served as an internal control by CaCl2 transfection. After 6 h, half of the growth medium was replaced with a medium containing the different compounds, reaching a final concentration of 20 µM. Twenty-four hours after transfection, transfection efficiency was evaluated using GFP fluorescence intensity (Cytation 5, ex/em: 470/525). Cells were harvested in 50 µL Reported lysis buffer (RLB) and put on a shaker for 10 min. From each well 5 µL were taken in duplicates and tested by luminometer.

[5] = molecular target: NSP1 (Severe acute respiratory syndrome coronavirus 2, UniProt P0DTD1)
[6] = system: OVCAR8 cell-derived xenograft; assay: Xenografts growth after 1Ais treatment in mice; format: in vivo
[7] = raw data calculation of one experiment, GFP normalized, AUG set to 100, compound marked (20)

T1 sequence (P47813 whole entry, one chain of several): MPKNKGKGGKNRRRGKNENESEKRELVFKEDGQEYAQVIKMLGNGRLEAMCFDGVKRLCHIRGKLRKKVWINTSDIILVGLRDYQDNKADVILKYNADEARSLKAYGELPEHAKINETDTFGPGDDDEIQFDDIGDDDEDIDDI

SMILES | IC50 [1] [µM] | GUG vs AUG data (%) ([2]; compound at 20uM) | GUG vs AUG (%) Average ([2]; compound at 20uM) [%] | US/DS ratio, average [3] | LONG (summary - All), normalized to DMSO ([4]; Long reporter, 20 µM) | SHORT (summary - All), normalized to DMSO ([4]; Short reporter, 20 µM) | Long 5'UTR reporter luciferase activity, normalized to DMSO (=1), single replicates [4] | average ( long vs short ratio) ([4]; 20 µM) | further results
COc1ccc(CN(Cc2nn3c(=O)cc(C)nc3s2)C(C)Cc2cccs2)cc1 (centres unmarked) [1Ai-5751] | 18 | 1.65% and 1.59% and 3.31% and 1.26% | 1.95 | 1.056 | 0.26 and 0.28 and 0.72 and 0.89 and 0.77 and 0.31 | 0.74 and 0.11 and 0.73 and 0.61 and 0.46 and 0.21 | 0.2584 and 0.2757 and 0.7216 and 0.8893 and 0.7688 and 0.3143 | 1.128 | GFP reporter ratio nsp1/gfp, avg [5]: 0.4183; GFP reporter ratio nsp1/gfp, rep 1 [5]: 0.4426; GFP reporter ratio nsp1/gfp, rep 2 [5]: 0.3941; gfp signal, mean of duplicate wells [5]: 2691 and 4145; nsp1 signal, mean of duplicate wells [5]: 1060.5 and 1834.5; ratio (nsp1/gfp) [5]: 0.394 and 0.443
O=C(Nc1ccc(S(=O)(=O)NC23CC4CC(CC(C4)C2)C3)cc1)c1ccc(Cl)cc1 [1A-3638] |  |  |  |  |  |  |  |  | Weight of tumor, average ([6]; group average): 0.2614; Weight of tumor ([6]; individual animals): 0.6521 and 0.1855 and 0.085 and 0.0594 and 0.2257 and 0.0264 and 0.562 and 0.006 and 0.5508; Tumor weight p-value (t-test vs DMSO) ([6]; t.test vs DMSO): 0.005991
O=C(Nc1nc(-c2c[nH]c3ccccc23)cs1)c1cc(=O)[nH]c2ccccc12 [1Ai-0403] | 17 |  |  | 1.283 |  |  |  |  | GUG vs AUG data (%) ([2]; compound at 5uM): 1.56% and 2.09% and 1.50% and 2.83%; GUG vs AUG (%) Average ([2]; compound at 5uM): 1.99%; LONG (summary - All), normalized to DMSO ([4]; Long reporter, 5 µM): 0.54 and 1.00 and 0.95; SHORT (summary - All), normalized to DMSO ([4]; Short reporter, 5 µM): 1.05 and 0.93 and 1.12; Long: Normalized to average DMSO ([4]; data section, Long reporter, GFP-corrected, 5 µM, per experiment): 0.5423 and 1 and 0.9496; Short: Normalized to average DMSO ([4]; data section, Short reporter, GFP-corrected, 5 µM, per experiment, includes values excluded as outliers): 1.05 and 0.9341 and 1.121; average ( long vs short ratio) ([4]; 5 µM): 0.803
c1csc(-c2nc(NCc3nnc4ccccn34)c3ccccc3n2)c1 [1Ai-2136] | 29 | 1.58% and 2.63% and 2.62% and 2.27% | 2.27 | 0.8866 | 0.43 and 0.72 and 0.55 and 0.54 | 0.63 and 0.25 and 0.98 and 0.99 and 0.71 and 0.58 | 0.43 and 1.0233 and 1.053 and 0.724 and 0.552 and 0.5382 | 0.813 | 
NS(=O)(=O)c1cccc(-c2ccc(C3Nc4ccccc4-c4nc5ccccc5n43)o2)c1 (centres unmarked) [1Ai-0050] | 26 | 2.02% and 1.27% and 1.28% and 1.15% | 1.43 | 1.064 | 1.25 and 0.94 and 0.54 and 1.63 | 0.72 and 0.91 |  | 1.337 | 
O=S(=O)(Cc1cc(Cl)c2c(c1)OCCO2)Cc1nc(-c2ccccc2)no1 [1Ai-6476] | 15 | 1.75% and 1.69% and 1.77% and 1.59% | 1.70 | 0.719 | 0.42 and 1.63 and 1.39 and 0.53 | 0.36 and 1.11 and 1.08 and 0.95 |  | 1.134 | calculation: CUG (AUG = 100) [2, 7]: 6.068; calculation: GUG (AUG = 100) [2, 7]: 1.669
